What all share (type): biochemical
What all share (design): from tissue

The target in one test is T1, ABHD6 (Mus musculus, UniProt Q8R2Y0).
T1 sequence (Q8R2Y0 1-336): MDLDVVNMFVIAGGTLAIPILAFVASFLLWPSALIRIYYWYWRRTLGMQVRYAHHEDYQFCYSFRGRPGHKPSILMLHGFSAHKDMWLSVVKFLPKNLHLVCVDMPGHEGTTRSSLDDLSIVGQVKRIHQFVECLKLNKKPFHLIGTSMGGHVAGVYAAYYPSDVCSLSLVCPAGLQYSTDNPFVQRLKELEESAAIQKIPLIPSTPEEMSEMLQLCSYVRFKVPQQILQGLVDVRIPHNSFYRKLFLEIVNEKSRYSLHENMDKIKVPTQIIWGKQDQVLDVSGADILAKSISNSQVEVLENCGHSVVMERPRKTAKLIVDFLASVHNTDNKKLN
Kind of test: In vitro competitive ABPP, % inhibition at fixed concentration, ABHD6. Here is the method: (§1) In Vitro Competitive Activity-Based Protein Profiling.
(§2) Proteomes (mouse brain membrane fraction or cell lysates) (50 μL, 1.0 mg/ml total protein concentration) were preincubated with varying concentrations of inhibitors at 37° C. After 30 min, FP-Rh (1.0 μL, 50 μM in DMSO) was added and the mixture was incubated for another 30 min at 37° C. Reactions were quenched with SDS loading buffer (50 μL—4×) and run on SDS-PAGE. Following gel imaging, serine hydrolase activity was determined by measuring fluorescent intensity of gel bands corresponding to MAGL, ABHD6 and FAAH using ImageJ 1.43u software.

In the next test the target is T2, FAAH (Mus musculus, UniProt O08914).
T2 sequence (O08914 1-579): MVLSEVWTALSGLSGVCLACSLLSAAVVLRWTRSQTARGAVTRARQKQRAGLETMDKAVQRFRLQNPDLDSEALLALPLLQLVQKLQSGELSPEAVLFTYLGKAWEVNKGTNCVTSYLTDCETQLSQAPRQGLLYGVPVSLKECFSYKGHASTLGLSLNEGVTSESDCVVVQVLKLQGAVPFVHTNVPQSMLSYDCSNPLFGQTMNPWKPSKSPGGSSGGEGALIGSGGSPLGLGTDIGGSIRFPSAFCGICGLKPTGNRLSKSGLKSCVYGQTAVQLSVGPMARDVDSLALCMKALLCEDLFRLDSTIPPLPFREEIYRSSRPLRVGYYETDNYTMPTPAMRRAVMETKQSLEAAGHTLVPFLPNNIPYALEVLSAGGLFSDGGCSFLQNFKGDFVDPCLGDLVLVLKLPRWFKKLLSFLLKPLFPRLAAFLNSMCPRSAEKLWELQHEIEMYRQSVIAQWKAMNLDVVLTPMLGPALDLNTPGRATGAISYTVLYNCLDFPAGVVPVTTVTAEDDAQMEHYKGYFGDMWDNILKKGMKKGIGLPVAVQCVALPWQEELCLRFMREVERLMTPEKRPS
Kind of test: In vitro competitive ABPP, % inhibition at fixed concentration, FAAH. Here is the method: as §1, §2

Another test deals with T3, MAGL (Mus musculus, UniProt O35678).
T3 sequence (O35678 1-303): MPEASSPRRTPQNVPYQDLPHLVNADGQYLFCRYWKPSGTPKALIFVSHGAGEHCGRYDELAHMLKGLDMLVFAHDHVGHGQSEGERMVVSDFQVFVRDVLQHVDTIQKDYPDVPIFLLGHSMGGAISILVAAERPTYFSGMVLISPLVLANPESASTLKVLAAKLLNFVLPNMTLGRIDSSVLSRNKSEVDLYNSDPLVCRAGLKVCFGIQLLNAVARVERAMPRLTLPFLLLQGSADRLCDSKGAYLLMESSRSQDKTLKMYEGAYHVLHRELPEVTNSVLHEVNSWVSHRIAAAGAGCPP
Kind of test: In vitro competitive ABPP, % inhibition at fixed concentration, MAGL. Here is the method: as §1, §2

SMILES strings stand for the structures.

On to `CS(=O)(=O)N1CCN(C(=O)ON2C(=O)CCC2=O)CC1` [Example 126, 2,5-Dioxopyrrolidin-1-yl 4-methanesulfonylpiperazine-1-carboxylate], for which the inhibition (commonly how much of the control response was suppressed) at 1 µM at ABHD6 was below 25%; at FAAH, below 25%; on MAGL, 25 to 75%. In addition, the inhibition at 10 µM on ABHD6, on FAAH and on MAGL was below 25% in each case.
Regarding `Cc1ccc(N2CCOCC2)c(CN2CCN(C(=O)ON3C(=O)CCC3=O)CC2)c1` [Example 127, 2,5-Dioxopyrrolidin-1-yl 4-{[5-methyl-2-(morpholin-4-yl)phenyl]methyl}piperazine-1-carboxylate], the inhibition at 1 µM on ABHD6 is 25 to 75%; at FAAH it was below 25%; at MAGL, 25 to 75%.
For the molecule `Cc1ccc(N2CCCC2)c(CN2CCN(C(=O)ON3C(=O)CCC3=O)CC2)c1` [Example 128, 2,5-Dioxopyrrolidin-1-yl 4-{[5-methyl-2-(pyrrolidin-1-yl)phenyl]methyl}piperazine-1-carboxylate], the inhibition at 1 µM on ABHD6 is below 25%; at FAAH it was below 25%; at MAGL, 25 to 75%.
Take `Cn1ncc(Br)c1CN1CCN(C(=O)ON2C(=O)CCC2=O)CC1` [Example 135, 2,5-Dioxopyrrolidin-1-yl 4-((4-bromo-1-methyl-1H-pyrazol-5-yl)methyl)piperazine-1-carboxylate]: the figures for the inhibition at 1 µM on ABHD6, at FAAH and at MAGL were 25 to 75%, below 25% and 25 to 75%, respectively.
For `COc1ccc(-c2cc(CN3CCN(C(=O)ON4C(=O)CCC4=O)CC3)no2)cc1` [Example 136, 2,5-Dioxopyrrolidin-1-yl 4-((5-(4-methoxyphenyl)isoxazol-3-yl)methyl)piperazine-1-carboxylate], the values for the inhibition at 1 µM at ABHD6, on FAAH and at MAGL were 25 to 75%, below 25% and 25 to 75%, respectively.
For the molecule `O=C(ON1C(=O)CCC1=O)N1CCN(Cc2cc(-c3ccccc3)on2)CC1` [Example 137, 2,5-Dioxopyrrolidin-1-yl 4-((5-phenylisoxazol-3-yl)methyl)piperazine-1-carboxylate], the inhibition at 1 µM was 25 to 75% on ABHD6, below 25% at FAAH and 25 to 75% on MAGL.
`Cn1cc(CN2CCN(C(=O)ON3C(=O)CCC3=O)CC2)c(-c2ccccc2Cl)n1` [Example 140, 2,5-Dioxopyrrolidin-1-yl 4-{[3-(2-chlorophenyl)-1-methyl-1H-pyrazol-4-yl]methyl}piperazine-1-carboxylate]: the inhibition at 1 µM on ABHD6 was 25 to 75%; on FAAH it was below 25%; on MAGL, 25 to 75%.
Take `CC(C)n1cc(CN2CCN(C(=O)ON3C(=O)CCC3=O)CC2)c(-c2ccccc2)n1` [Example 141, 2,5-Dioxopyrrolidin-1-yl 4-{[3-phenyl-1-(propan-2-yl)-1H-pyrazol-4-yl]methyl}piperazine-1-carboxylate]: the inhibition at 1 µM at ABHD6 was 25 to 75%; at FAAH, below 25%; on MAGL, 25 to 75%.
As to `CC(C)n1cc(CN2CCN(C(=O)ON3C(=O)CCC3=O)CC2)c(-c2ccccc2Cl)n1` [Example 142, 2,5-Dioxopyrrolidin-1-yl 4-{[3-(2-chlorophenyl)-1-(propan-2-yl)-1H-pyrazol-4-yl]methyl}piperazine-1-carboxylate], the figures for the inhibition at 1 µM at ABHD6, at FAAH and on MAGL were 25 to 75%, below 25% and 25 to 75%, respectively.
As to `Cc1cc(CN2CCN(C(=O)ON3C(=O)CCC3=O)CC2)n(C(C)C)n1` [Example 146, 2,5-Dioxopyrrolidin-1-yl 4-{[3-methyl-1-(propan-2-yl)-1H-pyrazol-5-yl]methyl}piperazine-1-carboxylate], the inhibition at 1 µM at ABHD6 is 25 to 75%; on FAAH it was below 25%; at MAGL, 25 to 75%.
On to `O=C(ON1C(=O)CCC1=O)N1CCN(Cc2cnc3ccccn23)CC1` [Example 147, 2,5-Dioxopyrrolidin-1-yl 4-(imidazo[1,2-a]pyridin-3-ylmethyl)piperazine-1-carboxylate], for which the inhibition at 1 µM on ABHD6, on FAAH and at MAGL was below 25% throughout.
Turning to `O=C(ON1C(=O)CCC1=O)N1CCN(C(c2ccc3c(c2)OC(F)(F)O3)c2ccc3c(c2)OC(F)(F)O3)CC1` [Example 150, 2,5-Dioxopyrrolidin-1-yl 4-[bis(2,2-difluoro-2H-1,3-benzodioxol-5-yl)methyl]piperazine-1-carboxylate], the inhibition at 10 µM was 25 to 75% at ABHD6, below 25% at FAAH and above 75% on MAGL.
As for `Cn1ncc2cc(C(c3ccc4c(cnn4C)c3)N3CCN(C(=O)ON4C(=O)CCC4=O)CC3)ccc21` [Example 154, 2,5-dioxopyrrolidin-1-yl 4-(bis(1-methyl-1H-indazol-5-yl)methyl)piperazine-1-carboxylate], the figures for the inhibition at 1 µM at ABHD6, on FAAH and at MAGL were 25 to 75%, below 25% and 25 to 75%, respectively.
With `O=C(ON1C(=O)CCC1=O)N1CCN(C(c2cccnc2)c2cccnc2)CC1` [Example 155, 2,5-Dioxopyrrolidin-1-yl 4-(di(pyridin-3-yl)methyl)piperazine-1-carboxylate], the inhibition at 1 µM at ABHD6 is below 25%; on FAAH, below 25%; at MAGL it was 25 to 75%.
`O=C(ON1C(=O)CCC1=O)N1CCN(C(c2ccc3c(c2)OCO3)c2ccc3c(c2)OCO3)CC1` [Example 156, 2,5-Dioxopyrrolidin-1-yl 4-[bis(2H-1,3-benzodioxol-5-yl)methyl]piperazine-1-carboxylate]: the inhibition at 1 µM on ABHD6 was 25 to 75%; on FAAH, below 25%; at MAGL, 25 to 75%.
In the case of `O=C(ON1C(=O)CCC1=O)N1CCN(C(c2ccc3c(c2)COC3)c2ccc3c(c2)COC3)CC1` [Example 157, 2,5-Dioxopyrrolidin-1-yl 4-[bis(1,3-dihydro-2-benzofuran-5-yl)methyl]piperazine-1-carboxylate], the inhibition at 1 µM was 25 to 75% at ABHD6, below 25% on FAAH and 25 to 75% on MAGL.
For the molecule `O=C(ON1C(=O)CCC1=O)N1CCC(C(O)(c2ccc3c(c2)COC3)c2ccc3c(c2)COC3)CC1` [Example 158, 2,5-Dioxopyrrolidin-1-yl 4-[bis(1,3-dihydro-2-benzofuran-5-yl)(hydroxy)methyl]piperidine-1-carboxylate], the inhibition at 1 µM was below 25% at ABHD6, below 25% at FAAH and 25 to 75% on MAGL.
As for `Cc1cc(-c2ccc(CN3CCN(C(=O)ON4C(=O)CCC4=O)CC3)c(C)c2)ccn1` [Example 159, 2,5-Dioxopyrrolidin-1-yl 4-{[2-methyl-4-(2-methylpyridin-4-yl)phenyl]methyl}piperazine-1-carboxylate], the inhibition at 1 µM on ABHD6 is 25 to 75%; on FAAH, below 25%; at MAGL, 25 to 75%.
For `O=C(ON1C(=O)CCC1=O)N1CCN(Cc2ccc(-c3cccc(F)c3)cc2F)CC1` [Example 162, 2,5-Dioxopyrrolidin-1-yl 4-{[2-fluoro-4-(3-fluorophenyl)phenyl]methyl}piperazine-1-carboxylate], the inhibition at 1 µM on ABHD6 is above 75%; at FAAH it was below 25%; on MAGL it was above 75%.
`Cc1cccc(-c2ccc(CN3CCN(C(=O)ON4C(=O)CCC4=O)CC3)c(C)c2)c1` [Example 163, 2,5-Dioxopyrrolidin-1-yl 4-{[2-methyl-4-(3-methylphenyl)phenyl]methyl}piperazine-1-carboxylate]: the inhibition at 1 µM at ABHD6 is 25 to 75%; on FAAH, below 25%; on MAGL, 25 to 75%.

The values above are taken from patent publication US9567302B2, “Carbamate compounds and of making and using same” (Abide Therapeutics, Inc., priority 2012, dated 2017).
